# Data taken from ChEMBL document CHEMBL4422618, “Translational impact of novel widely pharmacological characterized mofezolac-derived COX-1 inhibitors combined with bortezomib on human multiple myeloma cell lines viability” (Eur J Med Chem, 2019).
# pIC50: −log10 of the molar value. Calls of active or inactive are those of the source. The rule behind the calls is not given here.
# How the values were obtained:
# NCI-H929 [1] = assay: Induction of apoptosis in human NCI-H929 cells assessed as viable cells at 1.7 uM after 48 hrs in presence of bortezomib by Annexin-V/propidium iodide staining based flow cytometric method (reference value: 82.6%); assay type: functional; details: NCI-H929, 48 h, read-out: Activity
# NCI-H929 [2] = assay: Induction of apoptosis in human NCI-H929 cells assessed as viable cells at 1.7 uM after 48 hrs by Annexin-V/propidium iodide staining based flow cytometric method (reference value: 82.6%); assay type: functional; details: NCI-H929, 48 h, read-out: Activity
# [3] = Genotoxicity in Escherichia coli PQ37 at 500 uM after overnight incubation by SOS chromotest; assay type: toxicity
# RPMI-8226 [4] = assay: Cell cycle arrest in human RPMI8226 cells assessed as reduction in accumulation at G2/M phase at 1.7 uM in presence of bortezomib after 48 hrs by propidium iodide/RNase staining based flow cytometric method relative to bortezomib; assay type: functional
# NCI-H929 [5] = assay: Induction of apoptosis in human NCI-H929 cells assessed as late apoptotic cells at 1.7 uM after 48 hrs by Annexin-V/propidium iodide staining based flow cytometric method (reference value: 0.23%); assay type: functional
# RPMI-8226 [6] = assay: Cell cycle arrest in human RPMI8226 cells assessed as accumulation at G0/G1 phase at 1.7 uM after 48 hrs by propidium iodide/RNase staining based flow cytometric method; assay type: functional
# [7] = Mutagenicity in Salmonella typhimurium TA98 at 500 uM by Ames test; assay type: toxicity; details: salmonella enterica subsp. enterica serovar typhimurium
# RPMI-8226 [8] = assay: Induction of apoptosis in human RPMI8226 cells assessed as early apoptotic cells at 1.7 uM after 48 hrs in presence of bortezomib by Annexin-V/propidium iodide staining based flow cytometric method (reference value: 1.05%); assay type: functional
# Plasma [9] = assay: Anticoagulant activity in human platelet poor plasma assessed as activated partial thromboplastin time at 100 uM incubated for 15 mins at room temperature and subsequent incubation for 2 mins at 37 degreeC followed by cephalin addition and measured after 2 mins for every secs in presence of CaCl2; assay type: functional
# NCI-H929 [10] = assay: Induction of apoptosis in human NCI-H929 cells assessed as late apoptotic cells at 1.7 uM after 48 hrs in presence of bortezomib by Annexin-V/propidium iodide staining based flow cytometric method (reference value: 0.23%); assay type: functional
# Platelet = assay: Antiplatelet activity in human platelet rich plasma assessed as inhibition of arachidonic acid-induced platelet aggregation preincubated for 2 mins followed by arachidonic acid addition by turbidimetric method; assay type: functional, cell-based
# [11] = Hemolytic activity in erythrocytes (unknown origin) at 100 uM after 3 hrs by spectrophotometric analysis; assay type: ADME, cell-based, Erythrocyte; details: read-out: Activity
# [12] = Genotoxicity in Escherichia coli PQ35 at 500 uM after overnight incubation by SOS chromotest; assay type: toxicity
# RPMI-8226 [13] = assay: Potentiation of bortezomib-induced cytotoxicity against human RPMI8226 cells assessed as reduction in cell viability at 1.7 uM after 48 hrs in presence of bortezomib by CCK8 assay; assay type: functional
# [14] = Mutagenicity in Salmonella typhimurium TA100 at 500 uM by Ames test; assay type: toxicity; details: salmonella enterica subsp. enterica serovar typhimurium
# RPMI-8226 [15] = assay: Cell cycle arrest in human RPMI8226 cells assessed as accumulation at S phase at 1.7 uM in presence of bortezomib after 48 hrs by propidium iodide/RNase staining based flow cytometric method relative to bortezomib; assay type: functional
# [16] = Mutagenicity in Salmonella typhimurium TA97 at 500 uM by Ames test; assay type: toxicity; details: salmonella enterica subsp. enterica serovar typhimurium
# RPMI-8226 [17] = assay: Induction of apoptosis in human RPMI8226 cells assessed as necrotic cells at 1.7 uM after 48 hrs in presence of bortezomib by Annexin-V/propidium iodide staining based flow cytometric method (reference value: 0.090%); assay type: functional
# NCI-H929 [18] = assay: Induction of apoptosis in human NCI-H929 cells assessed as necrotic cells at 1.7 uM after 48 hrs in presence of bortezomib by Annexin-V/propidium iodide staining based flow cytometric method (reference value: 0.0034%); assay type: functional
# [19] = Mutagenicity in Salmonella typhimurium TA102 at 500 uM by Ames test; assay type: toxicity; details: salmonella enterica subsp. enterica serovar typhimurium
# NCI-H929 [20] = assay: Induction of apoptosis in human NCI-H929 cells assessed as early apoptotic cells at 1.7 uM after 48 hrs in presence of bortezomib by Annexin-V/propidium iodide staining based flow cytometric method (reference value: 17.1%); assay type: functional
# RPMI-8226 [21] = assay: Cell cycle arrest in human RPMI8226 cells assessed as accumulation at G0/G1 phase at 1.7 uM in presence of bortezomib after 48 hrs by propidium iodide/RNase staining based flow cytometric method relative to bortezomib; assay type: functional
# NCI-H929 [22] = assay: Potentiation of bortezomib-induced cytotoxicity against human NCI-H929 cells assessed as reduction in cell viability at […] after 48 hrs in presence of bortezomib by CCK8 assay; assay type: functional, cell-based
# RPMI-8226 [23] = assay: Induction of apoptosis in human RPMI8226 cells assessed as late apoptotic cells at 1.7 uM after 48 hrs in presence of bortezomib by Annexin-V/propidium iodide staining based flow cytometric method (reference value: 0.21%); assay type: functional
# RPMI-8226 [24] = assay: Cell cycle arrest in human RPMI8226 cells assessed as accumulation at S phase at 1.7 uM after 48 hrs by propidium iodide/RNase staining based flow cytometric method; assay type: functional
# RPMI-8226 [25] = assay: Induction of apoptosis in human RPMI8226 cells assessed as viable cells at 1.7 uM after 48 hrs in presence of bortezomib by Annexin-V/propidium iodide staining based flow cytometric method (reference value: 98.7%); assay type: functional; details: RPMI-8226, 48 h, read-out: Activity
# Plasma [26] = assay: Anticoagulant activity in human platelet poor plasma assessed as prothrombin time at 100 uM incubated for 15 mins at room temperature and subsequent incubation for 2 mins at 37 degreeC followed by PBS addition and measured after 3 mins for every secs in presence of calcium thromboplastin; assay type: functional
# NCI-H929 [27] = assay: Induction of apoptosis in human NCI-H929 cells assessed as necrotic cells at 1.7 uM after 48 hrs by Annexin-V/propidium iodide staining based flow cytometric method (reference value: 0.0034%); assay type: functional
# RPMI-8226 [28] = assay: Cytotoxicity against human RPMI8226 cells assessed as reduction in cell viability at […] after 48 hrs by CCK8 assay relative to control; assay type: functional
# NCI-H929 [29] = assay: Potentiation of bortezomib-induced cytotoxicity against human NCI-H929 cells assessed as reduction in cell viability at 42 nM after 48 hrs in presence of bortezomib by CCK8 assay; assay type: functional, cell-based
# NCI-H929 [30] = assay: Induction of apoptosis in human NCI-H929 cells assessed as early apoptotic cells at 1.7 uM after 48 hrs by Annexin-V/propidium iodide staining based flow cytometric method (reference value: 17.1%); assay type: functional
smiles,measurement,setting,value
CC(=O)Oc1ccccc1C(=O)O [ASPIRIN],viability at 1.7 µM,NCI-H929 [1],45.2%
same,viability at 1.7 µM,NCI-H929 [2],83.9%
same,Activity,[3],Non-Toxic
same,Activity,RPMI-8226 [4],Active
same,Activity,NCI-H929 [5],0.072%
same,Activity,RPMI-8226 [6],inactive
same,Activity,[7],Non-Toxic
same,Activity,RPMI-8226 [8],7.95%
same,APTT,Plasma [9],50.3 s
same,Activity,NCI-H929 [10],0.12%
same,pIC50,Platelet,5.95
same,"hemolysis at 3 h, 100 µM",[11],0%
same,Activity,[12],Non-Toxic
same,Activity,RPMI-8226 [13],66%
same,Activity,[14],Non-Toxic
same,Activity,RPMI-8226 [15],Active
same,Activity,[16],Non-Toxic
same,Activity,RPMI-8226 [17],0.014%
same,Activity,NCI-H929 [18],0.026%
same,Activity,[19],Non-Toxic
same,Activity,NCI-H929 [20],54.6%
same,Activity,RPMI-8226 [21],Active
same,Activity,NCI-H929 [22],inactive
same,Activity,RPMI-8226 [23],0.48%
same,Activity,RPMI-8226 [24],inactive
same,viability at 1.7 µM,RPMI-8226 [25],91.6%
same,PT,Plasma [26],14.6 s
same,Activity,NCI-H929 [27],0.016%
same,Activity,RPMI-8226 [28],7%
same,Activity,NCI-H929 [29],inactive
same,Activity,NCI-H929 [30],16%
